pIC50: −log10 of the molar value.
Assays:
MT4 = test: Ability to inhibit the spread of viral infection in MT-4 human T-lymphoid cells infected with HIV IIIb; type: functional
[1] = biological target: Human immunodeficiency virus type 1 protease (Human immunodeficiency virus 1, UniProt Q72874); test: Ability to prevent cleavage of acompound by the HIV protease wild-type enzyme

Cc1cc(O)cc(C)c1CNC(=O)[C@H](Cc1ccccc1)C[C@@H](O)CN1CCN(S(=O)(=O)c2cccs2)C[C@@H]1C(=O)NC(C)(C)C
ClC95 (MT4): 62.5 nM | pIC50 [1]: 9.33

Cc1cc(O)cc(C)c1CNC(=O)[C@H](Cc1ccccc1)C[C@@H](O)CN1CCN(S(=O)(=O)c2ccc3c(c2)CCN3c2ncccn2)C[C@@H]1C(=O)NC(C)(C)C
ClC95 (MT4): 31.3 nM | pIC50 [1]: 9.70

CC(C)(C)NC(=O)[C@H]1CN(S(=O)(=O)c2cccs2)CCN1C[C@H](O)C[C@@H](Cc1ccccc1)C(=O)NC1c2ccccc2C[C@H]1O (stereo partly drawn)
ClC95 (MT4): 31.3 nM | pIC50 [1]: 10.00

CSc1nccc(-c2ccc(S(=O)(=O)N3CCN(C[C@H](O)C[C@@H](Cc4ccccc4)C(=O)NCc4c(C)cc(O)cc4C)[C@@H](C(=O)NC(C)(C)C)C3)s2)n1
ClC95 (MT4): 62.5 nM | pIC50 [1]: > 9.70

From ChEMBL document CHEMBL1135201, “Combinatorial library of indinavir analogues: replacement for the aminoindanol at P2'” (Bioorg Med Chem Lett, 2002)
